Measurements as given in ChEMBL document CHEMBL1151301, “Isolation of translactone-containing triterpenes with thrombin inhibitory activities from the leaves of Lantana camara” (J Nat Prod, 1998).

The molecules below were run against Prothrombin (Homo sapiens, UniProt P00734) (assay: Inhibition of human thrombin by fibrinogen-clot assay).

IC50 [nM] | SMILES
70 | CC(=O)OC[C@]12C[C@@H]3OC(=O)[C@H](CC(=O)C=C(C)C)[C@H]3[C@]1(C)[C@@H](O)C[C@H]1C2=CC[C@@H]2[C@]1(C)CC[C@@H](OC(C)=O)[C@@]2(C)C(=O)O[C@@H]1O[C@H](CO)[C@@H](O)[C@H](O)[C@H]1O
50 | CC(C)=CC(=O)C[C@H]1C(=O)O[C@H]2C[C@]3(C)C4=CC[C@@H]5[C@](C)(CC[C@H]6OC(=O)[C@@]56C)[C@H]4CC[C@@]3(C)[C@@H]21

Further lines, the molecule ahead of its results:

SMILES | IC50 [nM]
CC(=O)O[C@@H]1CC[C@@]2(C)[C@@H](CC=C3[C@@H]2C[C@H](O)[C@@]2(C)[C@H]4[C@H](C[C@]32C)OC(=O)[C@@H]4CC(=O)C=C(C)C)[C@]1(C)C(=O)O | 90
CC(=O)O[C@@H]1CC[C@@]2(C)[C@@H](CC=C3[C@@H]2CC[C@@]2(C)[C@H]4[C@H](C[C@]32C)OC(=O)[C@@H]4CC(=O)C=C(C)C)[C@]1(C)C(=O)O | 18
CC(=O)O[C@@H]1CC[C@@]2(C)[C@@H](CC=C3[C@@H]2C[C@H](O)[C@@]2(C)[C@H]4[C@H](C[C@]32CO)OC(=O)[C@@H]4CC(=O)C=C(C)C)[C@]1(C)C(=O)O[C@@H]1O[C@H](CO)[C@@H](O)[C@H](O)[C@H]1O | 130
